From US20190010461A1, “HUMAN PLURIPOTENT STEM CELL-BASED SCREENING FOR SMOOTH MUSCLE CELL DIFFERENTIATION AND DISEASE” (Wisconsin Alumni Research Foundation, priority 2017, published 2019)

Assays:
MYH11-Tom+ cells = assay: Flow cytometric analysis of MYH11-Tom+ cells in SMC differentiation; type: cell-based, human; conditions: RepSox 25 μM, day 12-24
Procedure: (§1) Data are represented as mean±standard deviation (SD). […] Scale bar=1 mm. […] Scale bar=50 μm. […] Data are represented as mean±SD. Student's t-test, *: P<0.05, n=3.
FIGS. 7A-7G show the target of RepSox. […] Cells were treated with RepSox (25 μM) or SiRNA. […] Cells were treated with RepSox (25 μM) or SiRNA. […] During the smooth muscle cells differentiation, cells were treated with or without RepSox from day 10-11. […] During the smooth muscle cells differentiation, cells were treated with RepSox for 1 or 20 hours at day 12. […] Cells were treated with RepSox and non-targeting control (NT)/SiRNA at day 10. The RNA was isolated at day 14.
Optimized smooth muscle cell differentiation—Human pluripotent stem cell cells (H1) were cultured in E8 medium on a […]™-coated plate. To achieve the best differentiation results, ES cells were split using EDTA at 1:4 ratios two days before the differentiation. The cells reached 80-90% confluency two days later. At the day of the differentiation, ES cells were dissociated by ACCUTASE™ (Invitrogen) for 3-5 min at 37 ° C. The cells were plated on a […]™-coated plate at 1:4 ratios (1×10^5 cells/cm2). […] An increased CHIR99021 concentration of 3 μM decreased cell proliferation at 36 hours but increased MYH11 expression. At 36 hours, the cells were passaged and seeded on a new […]™-coated plate (1.6×10^4 cells/cm2). The low cell density is critical for the differentiation. A cell density of 1.0-4.0×10^4 cells/cm2 for different cell lines can be tested, such that 100% cell confluence will be achieved at day 6, which gives rise to the best differentiation efficiency. The cells were treated with E6T medium (E8 medium minus FGF2 but still containing 1.7 ng/ml TGF-β1) for 18 hours to induce the transient and medium level expression of MEOX1. E5F medium (E8 medium minus insulin and TGF-β1, but still containing 100 ng/ml FGF2) was used to suppress MEOX1 expression for another 5 days (days 3-8). Next, the cells were treated with E6FVR medium (E6 medium with 100 ng/ml FGF2, 50 ng/ml VEGFA, and 5 μM RESV, a NOTCH agonist) to induce SMC progenitors from day 8-12. E6R (E6 medium+5 μM RESV) medium supplemented with RepSox (25 μM), was then used to further mature SMCs from day 12 to 24. Cells were split (1×10^5 cells/cm2) at day 16 and further differentiated until day 24. The cells can be cryopreserved at day 16 or day 24. For P-SMCs, T-SMCs, and PT-SMCs, RepSox was replaced by PDGF-BB (10 ng/ml), TGF-β1 (1.7 ng/ml), or combination of PDGF-BB and TGF-β1, respectively, from day 12 to 24. From day 0-4: medium was changed every day. From day 2-24: medium was changed every other day. For day 1 and day 8-24, 1.5×volumes of medium, compared to the normal volume used in the well, were used. […]

[1] = test system: contractile and ECM genes (MYH11, SMTN, CNN1, ELN, ACTA2, TAGLN, COL1A1); assay: RT-qPCR of pluripotent stem cell-derived SMCs; type: cell-based, human; conditions: versus previous protocol (Cheung's LM-SMCs)
From the text: as §1
FIGS. 9A-9B show a comparison of MYH11 expression in RepSox-SMCs and Cheung's LM-SMCs. […] Data are normalized to Cheung's LM-SMCs and represented as mean±SD, n=3 for all the samples except fresh human artery (n=2). *, p<0.05, student t-test.
Optimized smooth muscle cell differentiation—Human pluripotent stem cell cells (H1) were cultured in E8 medium on a […]™-coated plate. To achieve the best differentiation results, ES cells were split using EDTA at 1:4 ratios two days before the differentiation. The cells reached 80-90% confluency two days later. At the day of the differentiation, ES cells were dissociated by ACCUTASE™ (Invitrogen) for 3-5 min at 37 ° C. The cells were plated on a […]™-coated plate at 1:4 ratios (1×10^5 cells/cm2). […] An increased CHIR99021 concentration of 3 μM decreased cell proliferation at 36 hours but increased MYH11 expression. At 36 hours, the cells were passaged and seeded on a new […]™-coated plate (1.6×10^4 cells/cm2). The low cell density is critical for the differentiation. A cell density of 1.0-4.0×10^4 cells/cm2 for different cell lines can be tested, such that 100% cell confluence will be achieved at day 6, which gives rise to the best differentiation efficiency. […]

[2] = test system: MYH11 promoter-driven luciferase activity; assay: High-throughput screening, MYH11-Nluc-2A-Tom reporter human ES cell line, luciferase assay; type: cell-based
Procedure: FIGS. 1A-1C depict a schematic of high-throughput screening. […] The cells were passaged at day 4 and seeded on the 96-well plate for screening (2×10^6 cells/plate). After the reporter cell line was differentiated into mesoderm, small molecules were added to the cells from day 4 to day 14. FIG. 1B depicts the results of the screening in two batches. The luciferase assay results of individual small molecules were normalized to the average reads of all samples for each batch. The small molecules were selected for further analysis when the normalized reads were greater than “average+3×STDEV”. FIG. 1C depicts optimizing the concentration of the selected small molecules.
The cells were treated with 50 ng/ml FGF2 and 20 ng/ml BMP4 for another two days. The cells were passaged at day 4 and seeded on the 96-well plate for screening (2×10^6 cells/plate). The compounds were added from day 4-14. The Luciferase substrate (1000× dilution) (Nano-Glo Luciferase Assay system, Promega) was added to the medium for 15 min and luminescence was measured. An increase in luminescence indicates increased MYH11 expression, which is an indicator of the contractile smooth muscle cell phenotype. The Thomson custom stem cell Modulator 1, GSK-kinase inhibitor library, SellekChem Kinase inhibitor library, Analyticon NATx library, Prestwick Chemical Library, GlaxoSmithKline Protein Kinase Inhibitors, and part of Enamine Representative Diversity library were used for screening.
High-throughput screening directs contractile smooth muscle cell differentiation—The construction of the MYH11-NLuc-tdTomato human ES cell reporter line generated by CRISPR/Cas9 technology is described in FIGS. 6A-6H. The reporter cell line was differentiated into mesoderm in E8BAC medium (Zhang et al., 2017) for two days and treated with FGF2 and BMP4 to further mature mesoderm for another two days. The cells were then passaged into a 96-well plate and exposed to small molecules for 10 days using a customized robotic workstation (FIG. 1A). The workstation was designed through collaboration with TECAN, which enables us to perform the automatic high-throughput screening at specific time point and in long-term. The medium were changed every other day and the small molecules were added during the feeding. […] We then validated these hits and optimized their concentration.

Cc1cccc(-c2n[nH]cc2-c2ccc3ncccc3n2)n1 [RepSox, RepSox (SJN 2511)]
efficiency of SMC differentiation (MYH11-tdTomato+) (MYH11-Tom+ cells): > 95%
improvement of MYH11 expression (RT-qPCR) [1]: 23 fold
effectiveness at promoting MYH11 expression among validated hits ([2]; hits validated, concentration optimized): most effective
promotes MYH11+ SMC differentiation (increased MYH11 promoter-driven luciferase activity) ([2]; small molecules added day 4-14, selected when normalized reads > average+3×STDEV): promotes MYH11^+ SMC differentiation
